According to patent publication US20090197818A1, “Use Of Ribose for Recovery From Anaesthesia” (priority 2004, published 2009):

Columns and labels:
[1] = Blood glucose monitoring and clinical laboratory safety in the intravenous D-Ribose cardiac surgery trial; type: in vivo, human
Procedure: Blood glucose levels were determined hourly, after initiation of the study drug infusion, by dextrastix (Accu-Chk III, Boehringer Mannheim Corp. Indianapolis Ind.) using blood from an intraarterial catheter. If the blood glucose level remained stable for 12 hours, then subsequent blood glucose levels were measured every 4 to 6 hours until the study drug infusion was stopped. Other clinical laboratory measurements including complete CBC with differential, platelet count, electrolytes=, liver function studies, serum osmolarity, and urinalysis were completed the morning following surgery. Abnormal laboratory tests were repeated as clinically indicated until normal or determined not to be clinically significant.
Five patients (28%) in the ribose treated group developed hypoglycemia (fingerstick glucose<70 mg/dl)) a known side effect of this pentose sugar. No placebo treated patients developed hypoglycemia. The mean glucose level in those patients developing hypoglycemia was 58 mg/dl. The lowest glucose level was 31 mg/dl. […] The study drug infusion was stopped in two subjects because of hypoglycemia. […] There were no statistical differences in the other clinical laboratory measurements.

[2] = system: adult patients selected for OCBP revascularization; experiment: Presurgical oral D-ribose loading before off cardiopulmonary bypass (OCBP) revascularization: cardiac indices; type: in vivo, human; conditions: 24 patients oral D-ribose preoperatively vs 20 without; baseline to post-operative; p<0.028
Source text: Patients with stable coronary artery disease or patients presenting with acute myocardial infarction may undergo revascularization using an “off” cardiopulmonary bypass procedure (“OCBP”). This procedure avoids the deleterious effects of cross-clamping in patients who can be selected for the procedure. The selection criteria include: accessibility of the grafts; number of the grafts; condition of the patient. When the area to be revascularized is at the back of the heart, the heart will need to be handled and rotated, which would interfere with the beating of the heart. If several grafts are needed, the time of operation is prolonged and the patient's heart will need to support circulation for a long time. Finally, a poorly functioning heart will need the assistance of the pump to support circulation. Nevertheless, in properly selected patients, the benefits of avoiding cross-clamping are substantial.
Forty-four adult patients were enrolled in a trial. At least one-third of the patents had sustained an acute myocardial infarction prior to presentation and pre-operative ejection fractions ranged from 30-72%. All patients were selected for OCBP revascularization with 20 patients consuming no pre-operative ribose and 24 patients given oral D-ribose preoperatively, cardiac indices were measured at baseline and post-operatively. […]

[3] = system: patients undergoing valve surgery plus CABG or CABG alone with aortic cross clamping; experiment: Double-blind placebo-controlled clinical trial of intravenous D-Ribose in cardiac surgery: ejection fraction by echocardiography; type: in vivo, human; conditions: placebo EF declined; ANOVA repeated measures p=0.04
Source text: A protocol was devised to test whether human subjects undergoing either valve surgery plus coronary artery bypass graft (CABG) or CABG alone with decreased heart function would benefit from the administration of ribose following heart surgery as did the healthy dogs of the Foker study. […] Inclusion criteria were: • Males or females aged 18 or older • Patients with documented coronary artery disease undergoing CABG with an ejection fraction (EF) of ≦35% based on echocardiography, radionuclide imaging or cardiac catheterization done within eight weeks of surgery. […] For both the transesophageal and transthoracic echocardiograms, the following long axis and short axis mid-papillary area changes were measured in triplicate by acoustic quantification techniques: end diastolic area (EDA), end systolic area (ESA), fractional area change (FAC), +dA/dt and -dA/dt. All area change data were also analyzed by manual off line analysis. EF was also determined off line using a long axis view. In addition, regional wall motion was quantified as the following: normal=1, hypokinetic=2, akinetic=3 and dyskinetic=4. The wall motion index score (WMIS) and percentage normal myocardium were calculated by reading a maximum of sixteen segments. […]

[4] = system: cross-bred sheep
[5] = system: patients with aortic valve disease undergoing AVR; experiment: Planned clinical trial: preconditioning with oral D-Ribose before cross clamping, then intravenous infusion; type: in vivo, human; conditions: oral D-Ribose 7 or 14 days before surgery, then i.v. 100 mg/kg/hour for five days
Source text: A single-center, randomized, double-blinded placebo-controlled clinical trial was designed to determine if preoperative oral administration of D-Ribose, following by peri-operative and operative intravenous infusion of D-Ribose could improve the ejection fraction and other functional parameters of hearts that are cross-clamped for various cardiac surgical procedures. Thirty (30) patients meeting the inclusion and exclusion criteria and who have signed informed consent forms will be randomized to receive oral D-Ribose (15) or D-Glucose (placebo) (15) for seven or 14 days prior to their surgical procedure and intravenous 5% […] (5% D-Glucose in normal saline, 0.5 mL/kg/hour) or 10% pyrogen-free D-Ribose in 5% D5W at a dose of 100 mg/kg/hour for five (5) days through a pulmonary artery cordis) beginning at the time of aortic cross clamping. […] Patients will be evaluated baseline ×2, (once prior to beginning oral test supplement and again within three days prior to surgical procedure), during and after surgery, and at days 1, 5 and 7. […] Patients will be evaluated for eligibility within three days to first test article administration and evaluation will be updated within three days prior to surgery. […] A medication history will be taken and all medications recorded in the case report. […]

[6] = system: healthy dog hearts; conditions: D-Ribose from reperfusion for at least four days; U.S. Pat. No. 4,719,201; cited from earlier work
[7] = system: Wistar rats; experiment: Planned non-cardiac sham abdominal surgery study under halothane anaesthesia; type: in vivo, rat; conditions: D-Ribose before, during and after sham operation
Procedure: Littered-paired Wistar rats will be preconditioned with oral D-Ribose (250 mg/day, 10 animals) as a test drug or D-Glucose(250 mg/day, 10 animals) as a placebo for five days. Following the preconditioning, the rats will be anesthetized with halothane, intubated for artificial respiration and paralyzed with curare. Following general anaesthesia, the rats will be given either the test drug or placebo, intravenously (IV). A two-inch abdominal incision will be made and the viscera will be carefully manipulated to simulate an abdominal exploratory surgery. The incision will be closed and the animals will be held under anaesthesia for one additional hour. Following that hour, anaesthesia will be discontinued and the IV infusion will be halted. The animals will be placed individually in activity cages and their activity will be assessed daily for five days. Test drug or placebo will be added to the drinking water at a dosage of 5% wt/vol. The blinded results will be observed for: first movement (return to consciousness following the sham operation) and daily activity over the first day and next five days. Food and water intake and gastrointestinal function will be measured.

[8] = system: patients recovering from hip or knee replacement operations; experiment: Anecdotal results from non-cardiac surgery with general anaesthesia; type: in vivo, human
Source text: For example, a person underwent two hip replacement operations, five months apart. With the second operation, they began taking oral ribose immediately after their recovery from anaesthesia. Their recovery to a feeling of alertness and energy was more rapid than after the first operation. Furthermore, their level of pain was less. Likewise, a person also underwent two knee replacement operations. With the second operation, they self-administered D-Ribose pre- and postoperatively. Their recovery to a feeling of alertness and energy was more rapid than after the first operation. Bauer et al. (Z. Geb. Neonatal 2001 May-June, 205(3):80-85) studied the efficacy of oral glucose for treating procedural pain in neonates. […] The authors proposed that the orogustatory stimulation by the sweet taste caused an endorphin release. It is not known whether the result seen was due to the local effect or to a systemic effect of glucose.

[9] = system: rats; conditions: halothane for 30 minutes; Hendricks et al. 1984; cited from earlier work

| Structure (SMILES) | patients with neurological or other clinical symptoms associated with hypoglycemia ([1]; hypoglycemic patients of the ribose treated group) | lowest glucose level ([1]; ribose treated group) [mg/dL] | mean glucose level in patients developing hypoglycemia ([1]; ribose treated group) [mg/dL] | patients who developed hypoglycemia (fingerstick glucose<70 mg/dl) ([1]; ribose treated group, five patients, none in placebo) [%] | greater increase in cardiac indices compared to controls [2] [%] | course of EF from baseline to Day 7 versus placebo [3] | time to cardiac arrest with cardioplegia containing ribose versus animals not given ribose ([4]; difference not statistically significant) | tolerability of supplemental ribose ([4]; in vivo) | time quiet and inactive after extubation ([4]; untreated series: additional 2 hours) | time to assume a consciousness state versus animals not given ribose ([4]; upon weaning from the ventilator) | expected myocardial function versus placebo [5] | ATP recovery after global myocardial ischemia [6] | expected activity during the following five days versus placebo [7] | expected first movement after anaesthesia versus placebo [7] | recovery to a feeling of alertness and energy compared with first operation ([8]; oral ribose at second operation, single patients) | level of pain compared with first operation ([8]; person, oral ribose after second hip replacement) | behavioural effects during the first week after anaesthesia [9] |
| --- | --- | --- | --- | --- | --- | --- | --- | --- | --- | --- | --- | --- | --- | --- | --- | --- | --- |
| O=C[C@H](O)[C@H](O)[C@H](O)CO [D-Ribose] | None | 31 | 58 | 28 | 49 | EF was maintained | somewhat faster | no metabolic or chemical abnormalities | about one | faster | better myocardial function | enhanced ATP recovery | increased activity | earlier movement | more rapid | less | – |
| FC(F)(F)C(Cl)Br (centres unmarked) [halothane] | – | – | – | – | – | – | – | – | – | – | – | – | – | – | – | – | reduced spontaneous activity and neurological deficit |
